# Data reported in US20240115557A1, “INHIBITORS OF RNA-GUIDED NUCLEASES AND USES THEREOF” (The Brigham and Women's Hospital, Inc., priority 2022, published 2024).
# Experiments:
# SaCas9 [1] = target: T1, SaCas9 (Staphylococcus aureus, UniProt J7RUA5); assay: eGFP secondary assay, SaCas9; type: cell-based; conditions: for Z score Avg Z: average of two replicates, Zscore>3 selected as hit; for Normalized Inhibition Rep 1: replicate 1; for Normalized eGFP Disruption Rep 1: replicate 1, % eGFP disruption; for Z score Rep1: replicate 1, Zscore>3 selected as hit; for Normalized Inhibition Rep 2: replicate 2; for Normalized eGFP Disruption Rep 2: replicate 2, % eGFP disruption; for Z score Rep 2: replicate 2, Zscore>3 selected as hit
# T1 sequence (J7RUA5 1-1053): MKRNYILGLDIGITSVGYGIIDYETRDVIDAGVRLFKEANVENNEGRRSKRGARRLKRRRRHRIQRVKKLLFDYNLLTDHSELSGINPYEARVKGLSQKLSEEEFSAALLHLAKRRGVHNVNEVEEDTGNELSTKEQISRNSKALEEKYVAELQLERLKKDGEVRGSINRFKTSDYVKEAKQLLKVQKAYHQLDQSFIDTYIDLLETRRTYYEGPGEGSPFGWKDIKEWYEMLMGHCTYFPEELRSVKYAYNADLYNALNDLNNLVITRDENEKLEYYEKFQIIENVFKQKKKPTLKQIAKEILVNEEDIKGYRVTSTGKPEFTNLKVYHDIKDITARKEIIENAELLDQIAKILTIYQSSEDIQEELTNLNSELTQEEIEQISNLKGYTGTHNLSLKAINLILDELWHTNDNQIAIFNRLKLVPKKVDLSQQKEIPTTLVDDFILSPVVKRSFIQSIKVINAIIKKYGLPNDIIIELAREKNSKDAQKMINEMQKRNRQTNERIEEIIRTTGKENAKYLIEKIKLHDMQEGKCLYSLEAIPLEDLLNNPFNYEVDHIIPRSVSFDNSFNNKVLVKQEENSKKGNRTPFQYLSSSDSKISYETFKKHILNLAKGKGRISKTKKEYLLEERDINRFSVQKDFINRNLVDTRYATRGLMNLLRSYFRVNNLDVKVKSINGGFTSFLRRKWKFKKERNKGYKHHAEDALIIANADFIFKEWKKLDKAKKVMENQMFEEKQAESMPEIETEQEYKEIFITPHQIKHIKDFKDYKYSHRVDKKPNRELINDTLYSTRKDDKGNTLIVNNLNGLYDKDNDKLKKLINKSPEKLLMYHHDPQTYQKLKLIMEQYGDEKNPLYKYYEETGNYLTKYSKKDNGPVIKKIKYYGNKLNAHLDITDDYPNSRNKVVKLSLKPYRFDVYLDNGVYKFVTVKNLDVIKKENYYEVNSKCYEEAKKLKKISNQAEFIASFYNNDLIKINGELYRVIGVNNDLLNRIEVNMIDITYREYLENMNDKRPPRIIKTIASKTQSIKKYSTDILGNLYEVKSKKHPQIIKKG
# Experimental: All hit compounds were moved forward into the secondary and tertiary screens, in which they were tested in cell-based assays. An eGFP assay is used to determine hits in cells as the secondary screen (eGFP assay).
# The eGFP secondary assay evaluated the hits identified from the primary screen. The compounds were judged off the % eGFP disruption to determine the Cas9 inhibition and the assay Zscore. […] The hits from the secondary screens will be processed through tertiary screens of dose studies and HiBit Assay as detailed herein.
# SpCas9 = SpCas9 (Streptococcus pyogenes serotype M1, UniProt Q99ZW2); assay: eGFP disruption assay, SpCas9, U2OS.eGFP.PEST cells; type: cell-based; conditions: for Z score Rep1 / Normalized Z rep1: replicate 1; for SpCas9 eGFP disruption Rep1: replicate 1, raw readout; for Z socre Rep2 / Normalized Z rep2: replicate 2; for SpCas9 eGFP disruption Rep2: replicate 2, raw readout
# In short: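 Rescue of eGFP signal lost through Cas9-induced NHEJ indels serves as the inhibition read-out, after 24 h compound exposure (20 μM for hits, variable for dose-response). Editing was delivered by nucleofection into U2OS.eGFP.PEST cells as SpCas9/gRNA plasmids (300/30 ng) or RNP (10/12 pmol). Toxic and autofluorescent compounds were excluded.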
# SaCas9 [2] = target: T1, SaCas9; assay: Strand displacement assay, SaCas9 primary screen; type: biochemical; conditions: for Auto Zscore Rep 1 / Auto Zscore Rep 2 / Normalized Zscore Rep 1 / Normalized Zscore Rep 2: SaCas9 primary screen; for Auto Zscore Rep 1 / Normalized Zscore Rep 1: replicate 1; for Auto Zscore Rep 2 / Normalized Zscore Rep 2: replicate 2; for Normalized Zscore Rep 1 / Normalized Zscore Rep 2: weaker potential hits; for 3 sigma Hit: flag 1 = hit at 3 sigma
# In short: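 Cas9 RNP (1:1.2 protein:gRNA) pre-formed in 20 mM Tris-HCl pH 7.5, 100 mM KCl, 5 mM MgCl2, used at 10 nM (2× stock) with Alexa-Fluor 647 substrate/quencher at 1 nM/5 nM (2× stock). Reaction ran 2.5 h at 37°C; strand displacement read as fluorescence. Hits called by Z-score: 3–5σ weak, >5σ strong.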
# [3] = Cas9 = lower control, Ctrl = upper control
# [4] = normalized, lower control about 0, upper control about 1
# Chain of SpCas9 (Q99ZW2 whole entry): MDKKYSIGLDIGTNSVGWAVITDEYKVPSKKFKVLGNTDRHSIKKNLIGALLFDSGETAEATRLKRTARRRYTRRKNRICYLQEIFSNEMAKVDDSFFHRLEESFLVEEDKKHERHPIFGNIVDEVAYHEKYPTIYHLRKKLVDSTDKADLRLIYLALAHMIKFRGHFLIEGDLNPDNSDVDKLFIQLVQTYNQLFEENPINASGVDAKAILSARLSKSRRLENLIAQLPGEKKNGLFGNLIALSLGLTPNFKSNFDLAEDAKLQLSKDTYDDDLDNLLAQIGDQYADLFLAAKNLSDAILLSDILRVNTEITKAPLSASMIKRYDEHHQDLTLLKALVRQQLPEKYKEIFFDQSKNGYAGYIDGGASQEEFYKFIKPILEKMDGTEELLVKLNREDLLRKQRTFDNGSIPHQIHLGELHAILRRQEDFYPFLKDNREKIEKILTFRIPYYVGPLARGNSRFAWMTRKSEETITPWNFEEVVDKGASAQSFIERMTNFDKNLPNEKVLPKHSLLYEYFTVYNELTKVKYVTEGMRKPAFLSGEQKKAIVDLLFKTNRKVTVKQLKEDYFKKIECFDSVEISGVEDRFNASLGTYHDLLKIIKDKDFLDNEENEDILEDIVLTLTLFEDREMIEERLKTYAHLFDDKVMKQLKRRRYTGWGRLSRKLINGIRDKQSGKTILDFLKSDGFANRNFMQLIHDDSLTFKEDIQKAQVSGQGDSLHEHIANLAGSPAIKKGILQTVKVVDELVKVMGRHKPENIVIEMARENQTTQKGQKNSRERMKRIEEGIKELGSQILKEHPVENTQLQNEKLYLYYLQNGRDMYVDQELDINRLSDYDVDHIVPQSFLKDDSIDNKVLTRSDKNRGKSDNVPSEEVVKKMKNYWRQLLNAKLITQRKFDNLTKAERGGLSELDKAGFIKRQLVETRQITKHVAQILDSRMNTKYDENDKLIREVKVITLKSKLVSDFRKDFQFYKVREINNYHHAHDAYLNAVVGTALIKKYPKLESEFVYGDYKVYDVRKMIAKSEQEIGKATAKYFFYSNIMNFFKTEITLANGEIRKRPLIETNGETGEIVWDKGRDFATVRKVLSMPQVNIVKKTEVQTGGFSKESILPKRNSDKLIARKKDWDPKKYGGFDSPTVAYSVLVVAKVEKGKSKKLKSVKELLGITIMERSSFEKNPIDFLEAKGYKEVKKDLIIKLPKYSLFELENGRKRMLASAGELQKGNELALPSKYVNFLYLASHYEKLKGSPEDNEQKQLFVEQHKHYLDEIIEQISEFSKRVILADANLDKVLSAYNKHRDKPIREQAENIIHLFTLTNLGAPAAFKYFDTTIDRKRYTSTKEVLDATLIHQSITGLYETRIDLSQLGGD
SMILES,Z score Avg Z (SaCas9 [1]),Normalized Inhibition Rep 1 (SaCas9 [1]),Normalized eGFP Disruption Rep 1 (SaCas9 [1]),Z score Rep1 (SaCas9 [1]),Normalized Inhibition Rep 2 (SaCas9 [1]),Normalized eGFP Disruption Rep 2 (SaCas9 [1]),Z score Rep 2 (SaCas9 [1]),Z score Rep1 (SpCas9),Z socre Rep2 (SpCas9),further results
Cc1occc1-c1nnc2sc(-c3c[nH]c4ccccc34)nn12 [Compound D727-0786],5.097,57.282,42.718,8.674,12.722,87.278,1.519,0.48,1.91,SpCas9 eGFP disruption Rep1 (SpCas9; [3]): 68.596; Normalized Z rep1 (SpCas9; [4]): 0.07; SpCas9 eGFP disruption Rep2 (SpCas9; [3]): 68.839; Normalized Z rep2 (SpCas9; [4]): 0.20
NC(=O)c1sc(=S)n(Cc2ccccc2)c1N [Compound F128-0030],8.704,70.438,29.562,9.005,67.693,32.307,8.402,,,Auto Zscore Rep 1 (SaCas9 [2]): −0.4371; Auto Zscore Rep 2 (SaCas9 [2]): 0.1928; Normalized Zscore Rep 1 (SaCas9 [2]): 0.187; Normalized Zscore Rep 2 (SaCas9 [2]): 0.143; 3 sigma Hit (SaCas9 [2]): 1
COc1ccc(N2C(=O)c3cc4ccccc4n3CC2(C)C(=O)NC2CCCCC2)c(OC)c1 (centres unmarked) [E234-0018],3.770,38.606,61.394,4.570,22.579,77.421,2.970,,,
O=C(NCCCN1CCC(N2CCCCC2)CC1)C1=Cc2sc3c(c2CS1)CCCC3 [E722-2652],5.750,43.522,56.478,5.564,47.827,52.173,5.937,,,Auto Zscore Rep 1 (SaCas9 [2]): 1.567; Auto Zscore Rep 2 (SaCas9 [2]): 0.3807; Normalized Zscore Rep 1 (SaCas9 [2]): 0.4606; Normalized Zscore Rep 2 (SaCas9 [2]): 0.3192; 3 sigma Hit (SaCas9 [2]): 1; 5 sigma Hit (SaCas9 [2]; flag 1 = hit at 5 sigma): 1
CNC(=O)c1sc(=S)n2c1[nH]c(=O)c1cc(Br)ccc12 [F083-0285],3.318,30.708,69.292,3.635,22.819,77.181,3.002,−1.78,−4.46,Normalized Z rep1 (SpCas9): −0.25; SpCas9 eGFP disruption Rep1 (SpCas9): 61.126; Normalized Z rep2 (SpCas9): −0.48; SpCas9 eGFP disruption Rep2 (SpCas9): 49.642
CC(=O)Nc1ccc(C(=O)Nc2ccc(CCc3nc4ccccc4n3-c3ccccc3)cc2)cc1 [F255-0057],5.773,46.812,53.188,5.542,45.641,54.359,6.003,,,
CCCN(CCC)C(=O)C1CCCN(c2ccc(-c3ccccc3)nn2)C1 (centres unmarked) [F305-0061],5.220,39.473,60.527,4.673,43.845,56.155,5.767,,,
C=CC1=C(C(=O)O)N2C(=O)[C@@H](NC(=O)C(=NOCC(=O)O)c3csc(N)n3)[C@H]2SC1.O [SAM001246816],3.731,37.117,62.883,4.745,21.891,78.109,2.717,0.17,−1.15,SpCas9 eGFP disruption Rep1 (SpCas9; [3]): 76.555; Normalized Z rep1 (SpCas9; [4]): 0.03; SpCas9 eGFP disruption Rep2 (SpCas9; [3]): 74.015; Normalized Z rep2 (SpCas9; [4]): −0.12
O=C1c2ccccc2C(=O)c2oc(-c3ccc(F)cc3)nc21 [T0502-0200],3.138,35.091,64.909,3.528,35.519,64.481,2.749,,,
